Test results as given in US20090110727A1, “Extended release compositions of proton pump inhibitors” (Eisai R & D management Co., Ltd., priority 2004, published 2009).

Assay: Osmotic pressure of saturated solutions by vapor pressure osmometer
Assay type: physicochemical
Details: Hewlett Packard vapor pressure osmometer; ±10%
Description: The osmotic solute may be initially present in excess and it can be in any physical form that is compatible with the proton pump inhibitor, the dosage form, and the osmopolymer. […] In the table, the osmotic pressure π, is in atmospheres, atm. The osmotic pressure is measured in a commercially available osmometer that measures the vapor pressure difference between pure water and the solution to be analyzed and, according to standard thermodynamic principles, the vapor pressure ratio is converted into osmotic pressure difference. […] The osmometer used for the present measurements is identified as Model 320B, Vapor Pressure Osmometer, manufactured by the Hewlett Packard Co., Avondale, Pa.

Compound	π value (osmotic pressure)
[Cl-].[Na+] [Sodium Chloride]	345 atm

Same assay, conditions: saturated solutions at 37° C., in water

Compound	Osmotic Pressure in atm.
O.O.O.O.O.O.O.O=P([O-])([O-])O.[Na+].[Na+] [Sodium Phosphate Dibasic 7 H2O]	31 atm
[Cl-].[K+] [Potassium Chloride]	245 atm
O=S(=O)([O-])[O-].[K+].[K+] [Potassium Sulfate]	39 atm
O=C(CO)[C@@H](O)[C@H](O)[C@H](O)CO [Fructose]	355 atm
[Cl-].[Na+] [Sodium Chloride]	356 atm
OC[C@@H](O)[C@@H](O)[C@H](O)[C@H](O)CO [Mannitol]	38 atm
O.O.O.O.O.O.O.O.O.O.O.O.O=P([O-])([O-])O.[Na+].[Na+] [Sodium Phosphate Dibasic 12 H2O]	31 atm

The next lines start with the values.

Osmotic Pressure in atm.	Compound
28 atm	Sodium Phosphate Monobasic H2O
36 atm	O.O.O.O.O.O.O.O.O.O.O.O.O=P([O-])([O-])[O-].[Na+].[Na+].[Na+] [Sodium Phosphate Tribasic 12 H2O]
29 atm	O=P([O-])([O-])O.[Na+].[Na+] [Sodium Phosphate Dibasic Anhydrous]
